Drawing on patent publication US12071425B2 (Genentech, Inc., priority 2018, dated 2024), this text covers IC50 for 26 compounds.

Structures are written as SMILES. Counter-ions that a name gives are not always drawn.

In the assay the target is kinase domain of IRE1 alpha (His-tagged kinase dead construct KR, AA G547-L977, D688N) (Homo sapiens (Human), UniProt O75460, D688N). The experiment in a line: IRE1α TR-FRET competition binding assay. The settings on record: competition with Kinase Tracer 236, 0.1 μM; one hour at room temperature. In outline: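 Sf9-expressed kinase-dead KR construct (0.006 μM final) pre-incubated 1 h at 4° C with Eu anti-His antibody (0.002 μM) in HEPES pH 7.5/MgCl2/Brij/DTT buffer; Kinase Tracer 236 (ATP-competitive probe, 0.1 μM final) added with compound. 1 h at room temperature; tracer displacement read by TR-FRET (665/615 nm).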
Sequence of kinase domain of IRE1 alpha (His-tagged kinase dead construct KR, AA G547-L977, D688N) (O75460 547-977 D688N): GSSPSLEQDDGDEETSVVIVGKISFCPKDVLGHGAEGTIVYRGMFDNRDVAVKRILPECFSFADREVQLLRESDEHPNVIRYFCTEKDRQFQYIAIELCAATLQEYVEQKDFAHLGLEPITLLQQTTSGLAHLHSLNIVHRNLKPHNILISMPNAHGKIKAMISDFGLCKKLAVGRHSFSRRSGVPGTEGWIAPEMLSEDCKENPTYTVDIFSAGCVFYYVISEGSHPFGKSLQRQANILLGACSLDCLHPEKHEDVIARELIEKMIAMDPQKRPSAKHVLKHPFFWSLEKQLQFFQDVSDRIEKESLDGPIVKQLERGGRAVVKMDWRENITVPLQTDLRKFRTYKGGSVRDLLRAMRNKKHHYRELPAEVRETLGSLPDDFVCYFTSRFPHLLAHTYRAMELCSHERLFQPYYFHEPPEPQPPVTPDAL
In general terms: TR-FRET usually uses a lanthanide donor and a delayed reading to cut background.
`O=S(=O)(Cc1ccccc1)Nc1ccc(Oc2ncccc2-c2ccnc(N[C@H]3CCCNC3)n2)c(F)c1F` [Compound 108, (S)-N-(2,3-difluoro-4-((3-(2-(piperidin-3-ylamino)pyrimidin-4-yl)pyridin-2-yl)oxy)phenyl)-1-phenylmethanesulfonamide hydrochloride] gave a half-inhibitory concentration (IC50) of 3.4 nM.
The figure for `CC(F)C1CNCC(Nc2nccc(-c3cccnc3Oc3cc(F)c(NS(=O)(=O)Cc4ccccc4)c(F)c3F)n2)C1` (single isomer, unassigned) [Compound 345, 1-Phenyl-N-(2,3,6-trifluoro-4-((3-(2-((5-(1-fluoroethyl)piperidin-3-yl)amino)pyrimidin-4-yl)pyridin-2-yl)oxy)phenyl)methanesulfonamide hydrochloride] is 0.17 nM; for `O=S(=O)(CCC(F)(F)F)Nc1ccc(Oc2ncccc2-c2ccnc(N[C@H]3CCCNC3)n2)cc1F` [Compound 105, (S)-3,3,3-trifluoro-N-(2-fluoro-4-((3-(2-(piperidin-3-ylamino)pyrimidin-4-yl)pyridin-2-yl)oxy)phenyl)propane-1-sulfonamide hydrochloride] it is 27 nM; for `Cc1ccc(NS(=O)(=O)Cc2ccccc2)cc1Oc1ncccc1-c1ccnc(N[C@H]2CCCNC2)n1` [Compound 136, (S)—N-(4-Methyl-3-((3-(2-(piperidin-3-ylamino)pyrimidin-4-yl)pyridin-2-yl)oxy)phenyl)-1-phenylmethanesulfonamide hydrochloride] it is 200 nM.
Compound `CN=S(=O)(Cc1ccccc1)Nc1ccc(Oc2ncccc2-c2ccnc(N[C@H]3CCCNC3)n2)c(F)c1F` (stereo partly drawn) [Compound 273, N-(2,3-difluoro-4-((3-(2-(((S)-piperidin-3-yl)amino)pyrimidin-4-yl)pyridin-2-yl)oxy)phenyl)-N′-methyl-1-phenylmethanesulfonimidamide] had an IC50 of 410 nM. This IC50 lies about 2-fold higher than the previous one.
Compound `Cc1ccc(CS(=O)(=O)Nc2c(F)cc(Oc3ncccc3-c3ccnc(N[C@@H]4CNC[C@@](C)(F)C4)n3)c(F)c2F)cc1` [Compound 284, 1-p-Tolyl-N-(2,3,6-trifluoro-4-((3-(2-(((3S,5S)-5-fluoro-5-methylpiperidin-3-yl)amino)pyrimidin-4-yl)pyridin-2-yl)oxy)phenyl)methanesulfonamide] registered an IC50 of 0.15 nM. This IC50 is about 2700-fold lower than that of the compound before.
Consider `O=S(=O)(Nc1ccc(Oc2ncccc2-c2ccnc(N[C@H]3CCCNC3)n2)cc1)c1ccccc1Cl` [Compound 134, (S)-2-Chloro-N-(4-((3-(2-(piperidin-3-ylamino)pyrimidin-4-yl)pyridin-2-yl)oxy)phenyl)benzenesulfonamide hydrochloride], for which the IC50 was 21 nM.
Compound `Cc1cc(NS(=O)(=O)c2ccccc2Cl)cc(C)c1Oc1ncccc1-c1ccnc(N[C@H]2CCCNC2)n1` [Compound 131, (S)-2-Chloro-N-(3,5-dimethyl-4-((3-(2-(piperidin-3-ylamino)pyrimidin-4-yl)pyridin-2-yl)oxy)phenyl)benzenesulfonamide hydrochloride] showed an IC50 of 59 nM.
Compound `Cc1cc(NS(=O)(=O)Cc2c(F)cccc2F)c(F)c(F)c1Oc1ncccc1-c1ccnc(N[C@@H]2CNC[C@@H](F)C2)n1` [Compound 283, N-(2,3-Difluoro-4-((3-(2-(((3S,5S)-5-fluoropiperidin-3-yl)amino)pyrimidin-4-yl)pyridin-2-yl)oxy)-5-methylphenyl)-1-(2,6-difluorophenyl)methanesulfonamide] gave an IC50 of 0.41 nM.
To `CN1CCC(Nc2nccc(-c3cccnc3Oc3ccc(NS(=O)(=O)Cc4ccccc4)c(F)c3F)n2)CC1` [Compound 168, N-(2,3-difluoro-4-((3-(2-((1-methylpiperidin-4-yl)amino)pyrimidin-4-yl)pyridin-2-yl)oxy)phenyl)-1-phenylmethanesulfonamide] belongs 67 nM.
To `Cc1ccc(NS(=O)(=O)c2ccccc2Cl)cc1Oc1ncccc1-c1ccnc(N[C@H]2CCCNC2)n1` [Compound 135, (S)-2-Chloro-N-(4-methyl-3-((3-(2-(piperidin-3-ylamino)pyrimidin-4-yl)pyridin-2-yl)oxy)phenyl)benzenesulfonamide hydrochloride] belongs 41 nM.
Take `O=S(=O)(Cc1ccccc1)Nc1ccc(Cl)c(Oc2ncccc2-c2ccnc(N[C@H]3CCCNC3)n2)c1F` [Compound 138, (S)—N-(4-Chloro-2-fluoro-3-((3-(2-(piperidin-3-ylamino)pyrimidin-4-yl)pyridin-2-yl)oxy)phenyl)-1-phenylmethanesulfonamide]: the IC50 stood at 15 nM. This IC50 is about 2.7-fold lower than that of the compound before.
On to `O=S(=O)(Cc1ccccc1)Nc1c(F)cc(Oc2ncccc2-c2ccnc(NC3CNCC(CF)C3)n2)c(F)c1F` (single isomer, unassigned) [Compound 277, 1-Phenyl-N-(2,3,6-trifluoro-4-((3-(2-((5-(fluoromethyl)piperidin-3-yl)amino)pyrimidin-4-yl)pyridin-2-yl)oxy)phenyl)methanesulfonamide], for which the IC50 turned out to be 27 nM.
Consider `O=S(=O)(Cc1cccnc1)Nc1ccc(Oc2ncccc2-c2ccnc(N[C@H]3CCCNC3)n2)c(F)c1F` [Compound 233, (S)-N-(2,3-difluoro-4-(3-(2-(piperidin-3-ylamino)pyrimidin-4-yl)pyridin-2-yloxy)phenyl)-1-(pyridin-3-yl)methanesulfonamide], for which the IC50 was 9 nM.
In turn, `Cc1cc(NS(=O)(=O)c2ccccc2Cl)ccc1Oc1ncccc1-c1ccnc(N[C@H]2CC[C@H](N)CC2)n1` [Compound 101, N-[4-[[3-[2-[(4-aminocyclohexyl)amino]pyrimidin-4-yl]-2-pyridyl]oxy]-3-methyl-phenyl]-2-chloro-benzenesulfonamide hydrochloride] gave an IC50 of 13 nM.
Turning to `Cc1cc(CS(=O)(=O)Nc2c(F)cc(Oc3ncccc3-c3ccnc(N[C@H]4CCCNC4)n3)c(F)c2F)no1` [Compound 195, (S)-1-(5-methylisoxazol-3-yl)-N-(2,3,6-trifluoro-4-((3-(2-(piperidin-3-ylamino)pyrimidin-4-yl)pyridin-2-yl)oxy)phenyl)methanesulfonamide], the IC50 was determined as 4.6 nM. This IC50 is about 2.8-fold lower than that of the compound before.
In the case of `CC(C)(C)CCS(=O)(=O)Nc1ccc(Oc2ncccc2-c2ccnc(N[C@H]3CCCNC3)n2)c(F)c1F` [Compound 226, (S)-N-(2,3-difluoro-4-((3-(2-(piperidin-3-ylamino)pyrimidin-4-yl)pyridin-2-yl)oxy)phenyl)-3,3-dimethylbutane-1-sulfonamide], the IC50 stood at 18 nM.
`O=S(=O)(Cc1ccccc1)Nc1c(F)cc(Oc2ncccc2-c2ccnc(NC3CNCC4(C3)CC4(F)F)n2)c(F)c1F` (single isomer, unassigned) [Compound 299, N-(4-((3-(2-((1,1-Difluoro-5-azaspiro[2.5]octan-7-yl)amino)pyrimidin-4-yl)pyridin-2-yl)oxy)-2,3,6-trifluorophenyl)-1-phenylmethanesulfonamide] displayed an IC50 of 0.38 nM.
Consider `O=S(=O)(CCC(F)(F)F)Nc1cc(F)c(Oc2ncccc2-c2ccnc(N[C@H]3CCCNC3)n2)cc1F` [Compound 109, (S)-N-(2,5-difluoro-4-((3-(2-(piperidin-3-ylamino)pyrimidin-4-yl)pyridin-2-yl)oxy)phenyl)-3,3,3-trifluoropropane-1-sulfonamide hydrochloride], for which the IC50 stood at 26 nM.
Compound `O=S(=O)(Cc1ccccc1F)Nc1c(F)cc(Oc2ncccc2-c2ccnc(NC3CNCC(C4CC4)C3)n2)c(F)c1F` (single isomer, unassigned) [Compound 327, N-(4-((3-(2-((5-Cyclopropylpiperidin-3-yl)amino)pyrimidin-4-yl)pyridin-2-yl)oxy)-2,3,6-trifluorophenyl)-1-(2-fluorophenyl)methanesulfonamide] gave a half-maximal inhibitory concentration (IC50) of 0.26 nM.
In turn, `O=S(=O)(Nc1ccc(Cl)c(Oc2ncccc2-c2ccnc(N[C@H]3CCCNC3)n2)c1F)c1ccccc1Cl` [Compound 137, (S)-2-Chloro-N-(4-chloro-2-fluoro-3-((3-(2-(piperidin-3-ylamino)pyrimidin-4-yl)pyridin-2-yl)oxy)phenyl)benzenesulfonamide hydrochloride] had an IC50 of 7.4 nM.
To `Cc1cccc(CS(=O)(=O)Nc2c(F)cc(Oc3ncccc3-c3ccnc(N[C@@H]4CNC[C@@H](F)C4)n3)c(F)c2F)c1` [Compound 383, 1-m-Tolyl-N-(2,3,6-trifluoro-4-((3-(2-(((3S,5S)-5-fluoropiperidin-3-yl)amino)pyrimidin-4-yl)pyridin-2-yl)oxy)phenyl)methanesulfonamide] belongs 0.7 nM; to `CN(C)S(=O)(=O)Nc1c(F)cc(Oc2ncccc2-c2ccnc(N[C@@H]3CNC[C@@H](F)C3)n2)c(F)c1F` [Compound 266, 4-(2-(4-(Dimethylsulfamoylamino)-2,3,5-trifluoro-phenoxy)-3-pyridyl)-2-(((3S,5S)-5-fluoro-3-piperidyl)amino)pyrimidine], 8.6 nM.
To `CCCS(=O)(=O)Nc1cccc(Oc2ncccc2-c2ccnc(N[C@H]3CCCNC3)n2)c1F` [Compound 144, (S)—N-(2-Fluoro-3-((3-(2-(piperidin-3-ylamino)pyrimidin-4-yl)pyridin-2-yl)oxy)phenyl)propane-1-sulfonamide hydrochloride] belongs 370 nM; to `O=S(=O)(Cc1ccccc1)Nc1ccc(Oc2ncccc2-c2ccnc(N[C@H]3CCCNC3)n2)cc1C(F)(F)F` [Compound 113, (S)-1-phenyl-N-(4-((3-(2-(piperidin-3-ylamino)pyrimidin-4-yl)pyridin-2-yl)oxy)-2-(trifluoromethyl)phenyl)methanesulfonamide], 11 nM; to `O=S(=O)(Nc1c(F)cc(Oc2ncccc2-c2ccnc(N[C@@H]3CNC[C@@H](F)C3)n2)c(F)c1F)C1CCCCC1` [Compound 368, N-(2,3,6-Trifluoro-4-((3-(2-(((3S,5S)-5-fluoropiperidin-3-yl)amino)pyrimidin-4-yl)pyridin-2-yl)oxy)phenyl)cyclohexanesulfonamide], 0.2 nM.

For orientation: IC50 means the point on the concentration scale where inhibition reaches its midpoint.
